Source: patent publication US6589941B1 (priority 1995, dated 2003)

Legend:
[1] = system: human tumor cell strain K562-WT; details: FIG. 8
[2] = system: tumor cell strain F46-WT of the mouse
Procedure: The formation of resistance is based on the amplification of the MDR gene. This is indicated with the aid of the Northern Blotting Technique, a method for indicating RNA molecules, i.e., the transcription of a gene, using the MDR gene as a probe (FIG. 10).
The tumor cell strain F4-6-WT of the mouse (WT=wild type=sensitive to cytostatic treatment=no amplification of the MDR gene) is treated over several weeks with staged increases in concentration of adriamycin. […] The formation of resistance is based on the amplification of the MDR gene. This is indicated with the aid of the Northern Technique, a method for indicating RNA molecules, i.e., the transcription of a gene, using the MDR gene as a probe (FIG. 15). […] The levels of β-actin MRNA are likewise analyzed as comparison. β-actin is used as an internal control for the RNA quantity.
In parallel experiments, adriamycin is administered with 1 μg/ml of a respective 5′ substituted nucleoside.

[3] = system: Saccharomyces cerevisiae MP1; assay: Recombination / mutation experiments with yeast; format: cell-based; details: for anti-recombinogenic effects in Saccharomyces cerevisiae MP1: FIGS. 11 and 12
[4] = system: SV40-DNA amplification in SV40 transformed embryonic CO631 hamster cells; assay: SV40-DNA gene amplification system in SV40-transformed hamster cells; format: cell-based, Chinese Hamster; details: for effect on SV40 gene amplification: model substance given alone, FIGS. 1 to 3
Excerpt: To investigate the amplification phenomena, a hamster cell strain is used which contains a virus (simian virus 40) integrated in the genome. It is known for this cell strain that an addition of genotoxic substances, but also various “non-genotoxic” carcinogens and tumor inducers, leads to amplification of SV40-DNA in the hamster genome. The method is based on the fact that marked SV40-DNA with hamster cell-DNA containing SV40-DNA in an amplified number, serving as a probe, is hybridized. The quantity of bound probe gives an insight into the degree of amplification of the integrated virus-DNA.
In order to determine the degree of amplification, the albumin-gene-DNA is measured simultaneously with the SV40-DNA. The albumin-gene, as opposed to SV40-DNA, is not amplified in the cell. Accordingly the value of the relative SV40-DNA content results from the quotient of the signal of the DNA probe hybridized with SV40-DNA to the signal of the DNA probe hybridized with albumin gene from the same SV40 transformed embryonic CO631 hamster cells.
The effect of the above named model substances alone or in combination with a carcinogen is tested in the gene amplification system.

MDR gene in F46-WT cells = assay: Northern Blot analysis of RNA with the MDR gene as probe; format: cell-based, mouse; details: BVDU+adriamycin treatment, FIG. 10
Excerpt: Expression of the MDR genes in the tumor cell strain F4-6WT of the mouse.

## COc1cccc2c1C(=O)c1c(O)c3c(c(O)c1C2=O)C[C@@](O)(C(=O)CO)C[C@@H]3O[C@H]1C[C@H](N)[C@H](O)[C@H](C)O1 [adriamycin]
[1]; 20 ng/ml adriamycin, K562-WT
  sensitivity of cells after long term treatment with staged increase in concentration: totally insensitive
[1]; 20 ng/ml adriamycin, treatment time 4 days, K562-WT
  toxic effect on non-resistant cells: severely toxic effect
[2]; 20 ng/ml adriamycin, F46-WT, FIGS. 9, 13, 14
  sensitivity of cells after long term treatment with staged increase in concentration: totally insensitive

## O=c1[nH]c(=O)n([C@H]2C[C@H](O)[C@@H](CO)S2)cc1/C=C/Br [(E)-5(2-bromovinyl-2′-deoxy-4′-thiouridine]
[3]
  anti-recombinogenic effects in Saccharomyces cerevisiae MP1: anti-recombinogenic effects

## O=c1[nH]c(=O)n([C@@H]2O[C@H](CO)[C@@H](O)[C@@H]2O)cc1/C=C/Br [(E)-5-(2-bromovinyl)-1-β-D-arabinofuranosyl-uracil]
[3]
  anti-recombinogenic effects in Saccharomyces cerevisiae MP1: anti-recombinogenic effects

## O=c1ccc2ccccc2o1 [coumarin]
[4]
  effect on SV40 gene amplification: increase the SV40 gene amplification

## C=C(C)[C@@]12O[C@@]3(c4ccccc4)O[C@@H]1[C@@H]1[C@@H]4O[C@]4(CO)[C@@H](O)[C@]4(O)C(=O)C(C)=C[C@H]4[C@@]1(O3)[C@H](C)[C@H]2OC(=O)/C=C/C=C/c1ccccc1 [mezerein]
[4]
  effect on SV40 gene amplification: increase the SV40 gene amplification

## CC(=N)S [thioacetamide]
[4]
  effect on SV40 gene amplification: increase the SV40 gene amplification

## C1CN1c1nc(N2CC2)nc(N2CC2)n1 [TEM, Triethylenmelamin]
[4]
  effect on SV40 gene amplification: increase the SV40 gene amplification

## C[C@]12CC[C@H]3[C@@H](CCC4=CC(=O)CC[C@@]43C)[C@@H]1CC[C@@H]2O [testosterone]
[4]; with S9-mix, FIG. 3
  effect on the amplifying effect of methotrexate (MTX): reduces the amplifying effect of methotrexate (MTX)
[4]; without S9-mix, FIG. 3
  effect on the amplifying effect of amino-6-mercaptopurine (AMP): increases the amplifying effect of amino-6-mercaptopurine (AMP)

## CC(C)=O [acetone]
[4]
  effect on SV40 gene amplification: no effect

## O=c1[nH]c(=O)n([C@H]2C[C@H](O)[C@@H](CO)O2)cc1/C=C/Br [BVDU, (E)-5-(2-bromovinyl-)2′-deoxyuridine]
[1]; 0.5 or 1 μg/ml BVDU given together with adriamycin, K562-WT, 6 to 8 weeks
  formation of resistance to adriamycin: prevents the formation of resistance to adriamycin
[1]; human tumor cells
  concentration from which BVDU acts in a toxic manner: about 10 μg/ml
MDR gene in F46-WT cells
  amplification of the MDR gene compared with adriamycin treatment alone: considerably weaker amplification of the MDR gene
[2]; 0.5 or 1 μg/ml BVDU given together with adriamycin, F46-WT, 6 to 8 weeks, FIG. 9
  formation of resistance to adriamycin: prevents the formation of resistance to adriamycin
[2]; mouse cells, FIG. 9
  concentration from which BVDU acts in a toxic manner: about 8 μg/ml
[3]
  anti-recombinogenic effects in Saccharomyces cerevisiae MP1: anti-recombinogenic effects
[3]; with and without S9-mix, FIG. 4
  effect on mutation in yeast: co-mutagenic
[3]; with and without liver microsomes (S9-mix), more visible and at lower concentration with S9-mix, FIG. 4
  effect on recombination in yeast: anti-recombinogenic
[4]; BVDU alone, repeat experiment, FIG. 6
  effect on spontaneous degree of amplification: slightly to lessen the spontaneous degree of amplification
[4]; with S9-mix, lower dose range than without S9-mix, FIG. 7
  effect on AMP-induced gene amplification: lowering of AMP-induced gene amplification
[4]; without S9-mix, FIG. 5
  concentration at which inhibition of AMP-induced gene amplification starts: about 0.05 μg/ml
[4]; without S9-mix, dose dependent, FIG. 5
  concentration leading to total inhibition of the AMP-induced gene amplification: 5 µg/mL

## CC(N)=O [acetamide]
[4]
  effect on SV40 gene amplification: increase the SV40 gene amplification

## O=c1[nH]c(=O)n([C@H]2C[C@H](O)[C@@H](CO)O2)cc1I [5-iodo-2′-deoxyuridine]
[3]
  anti-recombinogenic effects in Saccharomyces cerevisiae MP1: anti-recombinogenic effects

## Nc1nc(=O)n([C@H]2C[C@H](O)[C@@H](CO)O2)cc1I [5-iodo-2′-deoxycytidine]
[3]
  anti-recombinogenic effects in Saccharomyces cerevisiae MP1: anti-recombinogenic effects

## CN(C)C=O [dimethylfornamide, dimethylformamide]
[4]
  effect on SV40 gene amplification: no effect

## CCCCCCCCCCCCCC(=O)O[C@@H]1[C@@H](C)[C@@]2(O)[C@@H](C=C(CO)C[C@]3(O)C(=O)C(C)=C[C@@H]23)[C@H]2C(C)(C)[C@]12OC(C)=O [TPA, 12-0-tetradecanoyl-phorbol-13-acetate]
[4]
  effect on SV40 gene amplification: increase the SV40 gene amplification
